ChEMBL document CHEMBL1201862, “PubChem BioAssay data set” (2004)
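The compound was tested at five concentrations on cells cultured in 96-well plates, with a 48-hour exposure period. Here, GI50 denotes the concentration required for 50% inhibition of growth.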 Calls of active or inactive are those of the source. No stated cut-off is given here; in the data, active = GI50 up to about 1.1 µM and inactive = higher.

What was measured:
Test in all cases: DTP human tumour cell line panel, 48 h
SNB-75 = test system: SNB-75
CAKI-1 = test system: CAKI-1
EKVX = test system: EKVX
SR = test system: SR
LOX IMVI = test system: LOX IMVI
SF-539 = test system: SF-539
TK-10 = test system: TK-10
OVCAR-5 = test system: OVCAR-5
786-0 = test system: 786-0
OVCAR-3 = test system: OVCAR-3
SF-268 = test system: SF-268
NCI-H522 = test system: NCI-H522
CCRF-CEM = test system: CCRF-CEM
RPMI-8226 = test system: RPMI-8226
IGROV-1 = test system: IGROV-1
HCT-116 = test system: HCT-116
U-251 = test system: U-251

Measured: GI50

N#C/C(=C\c1ccc(O)c(O)c1)C(N)=S [TYRPHOSTIN 47]
inactive: SNB-75 7.36 µM | CAKI-1 > 100 µM | EKVX > 100 µM | SR 36.1 µM | LOX IMVI > 88.9 µM | SF-539 > 94.4 µM | TK-10 > 100 µM | OVCAR-5 > 100 µM | 786-0 56.6 µM | OVCAR-3 38.7 µM | SF-268 66.1 µM | NCI-H522 16.2 µM | CCRF-CEM 9.55 µM | RPMI-8226 > 49.2 µM | IGROV-1 > 100 µM | HCT-116 50.2 µM | U-251 70.5 µM

O=C(NNC(=O)c1cc(/C=C/c2cccc([N+](=O)[O-])c2)nc(S)n1)Nc1ccc(Cl)cc1
inactive: SNB-75 > 100 µM | EKVX > 100 µM | SR 1.25 µM | LOX IMVI 20 µM | TK-10 > 100 µM | OVCAR-5 > 100 µM | 786-0 47.8 µM | OVCAR-3 62.8 µM | SF-268 > 100 µM | NCI-H522 22.7 µM | CCRF-CEM 20.6 µM | RPMI-8226 25.5 µM | IGROV-1 > 100 µM | HCT-116 27.2 µM | U-251 14.8 µM

Brc1ccc(C[N+]23CN4CN(CN(C4)C2)C3)cc1
inactive: SNB-75 > 100 µM | EKVX > 100 µM | SR > 10 µM | LOX IMVI 18.8 µM | SF-539 40.3 µM | TK-10 > 100 µM | 786-0 30.6 µM | OVCAR-3 73.1 µM | SF-268 40.2 µM | NCI-H522 17.1 µM | CCRF-CEM 20.5 µM | RPMI-8226 20.4 µM | IGROV-1 > 100 µM | HCT-116 28.1 µM | U-251 69.3 µM

NCCSSCc1ccccc1CSSCCN
inactive: SNB-75 > 100 µM | CAKI-1 > 100 µM | EKVX > 100 µM | SR 41.7 µM | LOX IMVI 14 µM | SF-539 > 100 µM | TK-10 > 100 µM | OVCAR-5 > 100 µM | 786-0 > 100 µM | OVCAR-3 > 100 µM | SF-268 > 100 µM | NCI-H522 14.1 µM | RPMI-8226 67.8 µM | IGROV-1 > 100 µM | HCT-116 > 100 µM | U-251 > 100 µM

O=NN1CCN=C1c1ccc([N+](=O)[O-])cc1
inactive: SNB-75 > 100 µM | CAKI-1 > 100 µM | SR > 100 µM | LOX IMVI > 100 µM | SF-539 > 100 µM | TK-10 > 100 µM | OVCAR-5 > 100 µM | 786-0 > 100 µM | OVCAR-3 > 100 µM | SF-268 > 100 µM | NCI-H522 > 100 µM | RPMI-8226 > 100 µM | IGROV-1 > 100 µM | HCT-116 > 100 µM | U-251 > 100 µM

c1ccc(-c2sc(-c3ccccc3)c3c2C(c2ccccc2)c2c(-c4ccccc4)sc(-c4ccccc4)c2C3c2ccccc2)cc1 (configuration not stated)
inactive: SNB-75 > 100 µM | CAKI-1 > 100 µM | EKVX > 100 µM | SR > 100 µM | LOX IMVI > 100 µM | SF-539 > 100 µM | TK-10 > 100 µM | OVCAR-5 > 100 µM | 786-0 > 100 µM | OVCAR-3 > 100 µM | SF-268 > 100 µM | NCI-H522 > 100 µM | CCRF-CEM > 100 µM | RPMI-8226 > 100 µM | IGROV-1 > 100 µM | HCT-116 > 100 µM | U-251 > 100 µM

CC1=C(c2cc(C(=O)Nc3nccs3)nc(NC#N)n2)Sc2ccccc2N1
inactive: SNB-75 87.3 µM | CAKI-1 > 100 µM | EKVX > 100 µM | SR > 100 µM | SF-539 > 100 µM | TK-10 > 100 µM | OVCAR-5 > 100 µM | 786-0 > 100 µM | OVCAR-3 > 100 µM | SF-268 > 100 µM | NCI-H522 > 100 µM | CCRF-CEM 79.1 µM | RPMI-8226 > 100 µM | IGROV-1 > 100 µM | HCT-116 > 100 µM | U-251 > 100 µM

O=C(CSc1nnc(-c2ccc(/N=C\c3ccc(Cl)cc3)cc2)o1)Nc1ccccc1Cl
inactive: SNB-75 > 100 µM | EKVX > 100 µM | SR > 100 µM | LOX IMVI > 100 µM | TK-10 > 100 µM | 786-0 > 100 µM | SF-268 > 100 µM | NCI-H522 > 100 µM | CCRF-CEM > 100 µM | RPMI-8226 > 100 µM | HCT-116 > 100 µM | U-251 > 100 µM

COc1ccc2c(CN3CCCCC3CO)cc3cc(OC)c(OC)cc3c2c1 (configuration not stated)
inactive: SNB-75 8.53 µM | EKVX 6.41 µM | SR 3.72 µM | LOX IMVI 3.32 µM | SF-539 4.02 µM | TK-10 4.7 µM | OVCAR-5 3.1 µM | 786-0 4.8 µM | OVCAR-3 5.57 µM | SF-268 6.28 µM | NCI-H522 2.52 µM | CCRF-CEM 3.56 µM | RPMI-8226 3.48 µM | IGROV-1 13.2 µM | HCT-116 1.75 µM | U-251 5.85 µM

C/C(CC(=O)Nc1ccc(NC(=O)C/C(C)=N\NC(N)=O)cc1)=N/NC(N)=O
inactive: SNB-75 > 93.5 µM | CAKI-1 > 100 µM | EKVX > 74.3 µM | SR 38.5 µM | LOX IMVI > 42.5 µM | SF-539 > 100 µM | TK-10 > 68.7 µM | OVCAR-5 > 100 µM | 786-0 > 68.9 µM | OVCAR-3 49.5 µM | SF-268 > 60 µM | NCI-H522 > 51.5 µM | CCRF-CEM > 62.8 µM | RPMI-8226 24.8 µM | IGROV-1 > 100 µM | HCT-116 > 68.9 µM | U-251 > 78 µM

O=c1nc(NC(c2ccccc2)(c2ccccc2)c2ccccc2)ccn1CCO
inactive: SNB-75 40.8 µM | EKVX 81.8 µM | SR 36.3 µM | LOX IMVI 75.9 µM | SF-539 > 100 µM | TK-10 > 100 µM | OVCAR-5 > 100 µM | 786-0 > 100 µM | OVCAR-3 40.2 µM | SF-268 66.4 µM | NCI-H522 51.5 µM | RPMI-8226 49.8 µM | IGROV-1 > 100 µM | HCT-116 61.1 µM | U-251 > 100 µM

CC(C)C(N)=O [ISOBUTYRAMIDE]
inactive: SNB-75 > 5000 µM | CAKI-1 > 5000 µM | SR > 5000 µM | LOX IMVI > 5000 µM | SF-539 > 5000 µM | TK-10 > 5000 µM | OVCAR-5 > 5000 µM | 786-0 > 5000 µM | SF-268 > 5000 µM | NCI-H522 > 5000 µM | CCRF-CEM > 5000 µM | RPMI-8226 > 5000 µM | IGROV-1 > 5000 µM | HCT-116 > 5000 µM | U-251 > 5000 µM

CCCCCCCCCCCCNC(=S)OCCCC
inactive: SNB-75 > 100 µM | CAKI-1 > 100 µM | EKVX > 100 µM | SR 30.1 µM | LOX IMVI 15.8 µM | SF-539 > 100 µM | TK-10 19.7 µM | OVCAR-5 31.8 µM | 786-0 > 100 µM | SF-268 > 100 µM | NCI-H522 > 100 µM | CCRF-CEM 29.4 µM | RPMI-8226 15.7 µM | IGROV-1 > 100 µM | HCT-116 50.7 µM | U-251 63.7 µM

O=C(O)CCSC(=O)Nc1ccccc1Cl
inactive: SNB-75 > 100 µM | CAKI-1 > 100 µM | EKVX > 100 µM | SR > 100 µM | LOX IMVI > 100 µM | SF-539 > 100 µM | TK-10 > 100 µM | OVCAR-5 > 100 µM | 786-0 > 100 µM | OVCAR-3 > 100 µM | SF-268 > 100 µM | CCRF-CEM > 100 µM | RPMI-8226 > 100 µM | IGROV-1 > 100 µM | HCT-116 > 100 µM | U-251 > 100 µM

Cc1ccc2nc(N)[nH]c(=O)c2c1Sc1ccncc1
inactive: SNB-75 > 78.9 µM | CAKI-1 31.6 µM | EKVX 49.8 µM | SR 5.07 µM | LOX IMVI 11.2 µM | SF-539 4.78 µM | TK-10 > 100 µM | OVCAR-5 91.2 µM | 786-0 12.2 µM | OVCAR-3 > 69.2 µM | SF-268 10.5 µM | NCI-H522 17.8 µM | CCRF-CEM 5.05 µM | RPMI-8226 23.3 µM | IGROV-1 > 71.6 µM | HCT-116 15.5 µM | U-251 > 51.1 µM

Nc1ccc2ncc(Nc3ccc(Cl)c(Cl)c3)nc2c1
inactive: SNB-75 16 µM | CAKI-1 23.4 µM | EKVX 27.2 µM | SR 57.7 µM | LOX IMVI 21.6 µM | SF-539 17.3 µM | TK-10 70.6 µM | OVCAR-5 38.5 µM | 786-0 39.6 µM | OVCAR-3 19.4 µM | SF-268 39.7 µM | NCI-H522 17.9 µM | CCRF-CEM 19.7 µM | RPMI-8226 24.5 µM | HCT-116 21.2 µM | U-251 33.7 µM

CC(=O)c1c(O)ccc2c1CC(CC=O)O2 (configuration not stated)
inactive: SNB-75 42.1 µM | CAKI-1 > 100 µM | SR > 100 µM | LOX IMVI 19.9 µM | SF-539 50 µM | TK-10 > 100 µM | OVCAR-5 > 100 µM | 786-0 69.7 µM | OVCAR-3 48.5 µM | SF-268 88.5 µM | NCI-H522 60.5 µM | CCRF-CEM 74.8 µM | RPMI-8226 45.3 µM | IGROV-1 > 100 µM | HCT-116 19.7 µM | U-251 83.9 µM
